Measurements as given in patent publication US12098151B2 (priority 2018, dated 2024).
Like-named read-outs stand apart in the source and are kept apart here.

How the values were obtained:
Junin virus = assay: microbe, parasite or virus in culture; type: cell-based
LCMV = assay: microbe, parasite or virus in culture; type: cell-based, lymphocytic choriomeningitis virus (LCMV)
[1] = Mammarenavirus juninense, HEK-293T, 96 h
[2] = Mammarenavirus choriomeningitidis, KB, 96 h

Row | Structure (SMILES) | EC50 (Junin virus; [1]) [nM] | EC50 (LCMV; [2]) [nM] | further results
1 | CC(C)N1CN(C2c3ccccc3C3C(c4ccccc42)C3(F)F)n2cc(C(=O)O)c(=O)c(O)c2C1=O (single isomer, unassigned) [III-010] | 10 | 9.9 | 
2 | O=C(O)c1cn2c(c(O)c1=O)C(=O)N1CCOC[C@H]1N2[C@@H]1c2ccccc2SCc2c1ccc(F)c2F [Compound I-001] |  |  | EC50 (Junin virus; read-out: EC50): 111 nM; EC50 (LCMV; read-out: EC50): 115 nM
3 | C[C@@H](N1CN([C@H]2c3ccccc3CSc3ccccc32)n2cc(C(=O)O)c(=O)c(O)c2C1=O)C(F)(F)F [Compound I-004] | 15 | 12 | 
4 | CCN1CN(C(c2ccccc2)c2ccccc2)n2cc(C(=O)O)c(=O)c(O)c2C1=O [Compound I-005] | 28 | 53 | 
5 | CC1N(C)C(=O)c2c(O)c(=O)c(C(=O)O)cn2N1C(c1ccccc1)c1ccccc1 (stereo not shown) [Compound I-006] | 36 | 136 | 
6 | CCN1C(=O)c2c(O)c(=O)c(C(=O)O)cn2C(C(c2ccccc2)c2ccccc2)N1CC (stereo not shown) [Compound I-007] | 138 | 65 | 
7 | CN1CN(C(c2ccccc2)c2ccccc2)n2cc(C(=O)O)c(=O)c(O)c2C1=O [Compound I-008] | 239 | 205 | 
8 | CN1C(=O)c2c(O)c(=O)c(C(=O)O)cn2C(C(c2ccccc2)c2ccccc2)N1C (stereo not shown) [Compound I-009] | 405 | 143 | 
9 | CCN1CN(Cc2ccc(-c3ccccc3)cc2)n2cc(C(=O)O)c(=O)c(O)c2C1=O [Compound I-010] | 579 | 328 | 
10 | CC1Nn2cc(C(=O)O)c(=O)c(O)c2C(=O)N1C (stereo not shown) [Compound I-011] | 1670 | 1930 | 
11 | COCCN1C[C@H](C(c2ccccc2)c2ccccc2)n2cc(NC(=O)OC)c(=O)c(O)c2C1=O [Compound I-012] | 3000 |  | 
12 | CC(C)N1CN(C2c3ccccc3CSc3ccccc32)n2cc(C(=O)O)c(=O)c(O)c2C1=O (stereo not shown) [Compound I-019] |  |  | EC50 (Junin virus): 6.9 nM; EC50 (LCMV): 2.2 nM
13 | O=C(O)c1cn2c(c(O)c1=O)C(=O)N(Cc1ccc(F)cc1F)C[C@@H]2C(c1ccccc1)c1ccccc1 [Compound I-020] | 7.1 | 5.9 | 
14 | COCCN1C(=O)c2c(O)c(=O)c(C(=O)O)cn2N(C2c3ccccc3CCc3ccccc32)C1CCSC (stereo not shown) [Compound I-022] | 10 | 1.6 | 
15 | O=C(O)c1cn2c(c(O)c1=O)C(=O)N(Cc1cccc(Cl)c1F)C[C@@H]2C(c1ccccc1)c1ccccc1 [Compound I-023] | 11 | 2.2 | 
16 | CC(C)=CCN1C[C@H](C(c2ccccc2)c2ccccc2)n2cc(C(=O)O)c(=O)c(O)c2C1=O [Compound I-024] | 12 | 14 | 
17 | O=C(O)c1cn2c(c(O)c1=O)C(=O)N(Cc1ccccn1)C[C@@H]2C(c1ccccc1)c1ccccc1 [Compound I-025] | 13 | 5 | 
18 | O=C(O)c1cn2c(c(O)c1=O)C(=O)N(CC1CCCCO1)C[C@@H]2C(c1ccccc1)c1ccccc1 (stereo partly shown) [Compound I-026] | 17 | 6.9 | 
19 | Cc1cc(CN2C[C@H](C(c3ccccc3)c3ccccc3)n3cc(C(=O)O)c(=O)c(O)c3C2=O)no1 [Compound I-027] | 19 | 9.4 | 
20 | O=C(O)c1cn2c(c(O)c1=O)C(=O)N(CC1CC1)C[C@@H]2C(c1ccccc1)c1ccccc1 [Compound I-028] | 40 | 13 | 
21 | CN1C[C@H](C2c3ccccc3CSc3ccccc32)n2cc(C(=O)O)c(=O)c(O)c2C1=O (stereo partly shown) [Compound I-029] | 42 | < 31 | 
22 | O=C(O)c1cn2c(c(O)c1=O)C(=O)N(Cc1cccnc1)C[C@@H]2C(c1ccccc1)c1ccccc1 [Compound I-030] | 44 | 31 | 
23 | CCCC(C)N1C[C@H](C(c2ccccc2)c2ccccc2)n2cc(C(=O)O)c(=O)c(O)c2C1=O (stereo partly shown) [Compound I-031] | 45 | 20 | 

Row | Structure (SMILES) | EC50 (Junin virus; [1]) [nM] | EC50 (LCMV; [2]) [nM] | further results
24 | CCCN1C[C@H](C(c2ccccc2)c2ccccc2)n2cc(C(=O)O)c(=O)c(O)c2C1=O [Compound I-032] | 64 | 18 | 
25 | CCC(C)N1C[C@H](C(c2ccccc2)c2ccccc2)n2cc(C(=O)O)c(=O)c(O)c2C1=O (stereo partly shown) [Compound I-033] | 68 | 15 | 
26 | O=C(O)c1cn2c(c(O)c1=O)C(=O)N(CC1CCOCC1)C[C@@H]2C(c1ccccc1)c1ccccc1 [Compound I-034] | 68 | 32 | 
27 | CC(C)OCCN1C[C@H](C(c2ccccc2)c2ccccc2)n2cc(C(=O)O)c(=O)c(O)c2C1=O [Compound I-035] | 71 | < 6 | 
28 | COCCN1C(=O)c2c(O)c(=O)c(C(=O)O)cn2C[C@H]1C(c1ccccc1)c1ccccc1 [Compound I-036] | 74 | 69 | 
29 | CC(C)N1C[C@H](C(c2ccccc2)c2ccccc2)n2cc(C(=O)O)c(=O)c(O)c2C1=O [Compound I-037] | 82 | 24 | 
30 | CCOCCN1C[C@H](C(c2ccccc2)c2ccccc2)n2cc(C(=O)O)c(=O)c(O)c2C1=O [Compound I-038] | 148 | 28 | 
31 | COCCN1C[C@H](C(c2ccccc2)c2ccccc2)n2cc(C(=O)O)c(=O)c(O)c2C1=O [Compound I-039] | 240 | 17 | 
32 | C#CCN1C[C@H](C(c2ccccc2)c2ccccc2)n2cc(C(=O)O)c(=O)c(O)c2C1=O [Compound I-040] | 173 | 44 | 
33 | O=C(O)c1cn2c(c(O)c1=O)C(=O)N(Cc1ccccc1)C[C@@H]2C(c1ccccc1)c1ccccc1 [Compound I-041] | 180 | 6.2 | 
34 | CN1C(=O)c2c(O)c(=O)c(C(=O)O)cn2C[C@H]1C(c1ccccc1)c1ccccc1 [Compound I-042] | 255 | 58 | 
35 | O=C(O)c1cn2c(c(O)c1=O)C(=O)N1CCCO[C@@H]1[C@@H]2C(c1ccccc1)c1ccccc1 [Compound I-050] | 640 |  | 
36 | O=C(O)c1cn2c(c(O)c1=O)C(=O)N(Cc1ccc(F)cc1)CN2Cc1ccc(-c2ccccc2)cc1 [Compound I-052] | 751 |  | 
37 | CC(C)N1CC(Cc2ccccc2)n2cc(C(=O)O)c(=O)c(O)c2C1=O (stereo not shown) [Compound I-055] | 1870 |  | 
38 | COCCN1C[C@H](CC2CCCCC2)n2cc(C(=O)O)c(=O)c(O)c2C1=O [Compound I-056] | 2030 |  | 
39 | O=C(O)c1cn2c(c(O)c1=O)C(=O)N[C@H](C(c1ccccc1)c1ccccc1)C2 [Compound I-059] |  | 772 | 
40 | O=C(O)c1cn2c(c(O)c1=O)C(=O)N1CCCO[C@H]1[C@@H]2Cc1ccccc1 [Compound I-062] |  | 2410 | 
41 | O=C(O)CN1C[C@H](C(c2ccccc2)c2ccccc2)n2cc(C(=O)O)c(=O)c(O)c2C1=O [Compound I-063] |  | 280 | 
42 | CCOC(=O)c1cn2c(c(O)c1=O)C(=O)N(CCOC)C[C@@H]2C(c1ccccc1)c1ccccc1 [Compound I-066] |  | 250 | 
43 | CCN1CN(C(c2ccccc2)c2ccccc2)n2c(C)c(C(=O)O)c(=O)c(O)c2C1=O [Compound I-072] |  |  | EC50 (Junin virus; read-out: EC50): 14 nM
44 | CCN1CN(Cc2ccc(-c3ccccc3OC)s2)n2c(C)c(C(=O)O)c(=O)c(O)c2C1=O [Compound I-073] |  |  | EC50 (Junin virus; read-out: EC50): 65 nM
45 | CCN(CC)CCN1CN(C2c3ccccc3CCc3ccccc32)n2cc(C(=O)O)c(=O)c(O)c2C1=O [III-022] |  | > 1000 | 
46 | CC(C)N1CN(Cc2ccccc2)n2cc(C(=O)O)c(=O)c(O)c2C1=O [III-026] |  | > 1000 | 
